From PubChem BioAssay AID2060337 (Molecular Pharmacology Branch, DTP, NCI, 2025)

System: 832693-133-R-J1-PDC multi-cell spheroids, viability
Test: Anticancer human tumor 832693-133-R-J1-PDC patient-derived head and neck squamous carcinoma cell line growth inhibition [IpAb]
Settings: for IC50: curve of first compound; for viability, T/C: stronger effect = lower value
How it was run: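 Combinations with ipatasertib or abemaciclib were tested on tumour spheroids holding HUVEC (25%) and MSC (15%) alongside 60% malignant cells. Top concentration was at or near clinical Cmax (10 microM if undefined), descending in half-log steps.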

[1] = second compound 0.1 µM, first compound 0.0316 µM
[2] = second compound 0.1 µM, first compound 0.1 µM
[3] = second compound 0.316 µM, first compound 0.0316 µM
[4] = second compound 0.316 µM, first compound 0.1 µM
[5] = second compound 1 µM, first compound 0.0316 µM
[6] = second compound 1 µM, first compound 0.1 µM
[7] = second compound 3.16 µM, first compound 0.0316 µM
[8] = second compound 3.16 µM, first compound 0.1 µM
[9] = second compound 10 µM, first compound 0.0316 µM
[10] = second compound 10 µM, first compound 0.1 µM
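Further: spheroids exposed to the drugs for one week before the viability readout.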
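Wherever viability, T/C is given: 100% = DMSO vehicle control wells.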

Cn1ncc(Cl)c1-c1cc(C(=O)NC(CN)Cc2cccc(F)c2)sc1Cl (stereo not given) + CC(C)NCC(C(=O)N1CCN(c2ncnc3c2C(C)CC3O)CC1)c1ccc(Cl)cc1
IC50 (second compound 0.1 µM): 4.96 µM
IC50 (second compound 0.316 µM): 4.8 µM
IC50 (second compound 1 µM): 3.75 µM
IC50 (second compound 3.16 µM): 4.14 µM
IC50 (second compound 10 µM): 2.63 µM
viability, T/C [1]: 94.7%
viability, T/C [2]: 87.5%
viability, T/C (second compound 0.1 µM, first compound 0.316 µM): 75.5%
viability, T/C (second compound 0.1 µM, first compound 1 µM): 61.1%
viability, T/C (second compound 0.1 µM, first compound 3.16 µM): 90.1%
viability, T/C (second compound 0.1 µM, first compound 10 µM): 0.23%
viability, T/C [3]: 82.7%
viability, T/C [4]: 73.1%
viability, T/C (second compound 0.316 µM, first compound 0.316 µM): 79.9%
viability, T/C (second compound 0.316 µM, first compound 1 µM): 63.2%
viability, T/C (second compound 0.316 µM, first compound 3.16 µM): 92.3%
viability, T/C (second compound 0.316 µM, first compound 10 µM): 0.22%
viability, T/C [5]: 47.9%
viability, T/C [6]: 59.8%
viability, T/C (second compound 1 µM, first compound 0.316 µM): 54.6%
viability, T/C (second compound 1 µM, first compound 1 µM): 56.6%
viability, T/C (second compound 1 µM, first compound 3.16 µM): 74.3%
viability, T/C (second compound 1 µM, first compound 10 µM): 0.2%
viability, T/C [7]: 50.1%
viability, T/C [8]: 59.1%
viability, T/C (second compound 3.16 µM, first compound 0.316 µM): 66.1%
viability, T/C (second compound 3.16 µM, first compound 1 µM): 70.3%
viability, T/C (second compound 3.16 µM, first compound 3.16 µM): 80.8%
viability, T/C (second compound 3.16 µM, first compound 10 µM): 0.2%
viability, T/C [9]: 67.2%
viability, T/C [10]: 73%
viability, T/C (second compound 10 µM, first compound 0.316 µM): 69.5%
viability, T/C (second compound 10 µM, first compound 1 µM): 73.8%
viability, T/C (second compound 10 µM, first compound 3.16 µM): 46.1%
viability, T/C (second compound 10 µM, first compound 10 µM): 0.24%

Cn1ncnc1[C@H]1c2n[nH]c(=O)c3cc(F)cc(c23)N[C@@H]1c1ccc(F)cc1 + CC(C)NCC(C(=O)N1CCN(c2ncnc3c2C(C)CC3O)CC1)c1ccc(Cl)cc1
IC50 (second compound 0.1 µM): > 0.1 µM
IC50 (second compound 0.316 µM): > 0.1 µM
IC50 (second compound 1 µM): 0.0047 µM
IC50 (second compound 3.16 µM): 0.00816 µM
IC50 (second compound 10 µM): > 0.1 µM
viability, T/C (second compound 0.1 µM, first compound 0.000316 µM): 96%
viability, T/C (second compound 0.1 µM, first compound 0.001 µM): 94%
viability, T/C (second compound 0.1 µM, first compound 0.00316 µM): 74.7%
viability, T/C (second compound 0.1 µM, first compound 0.01 µM): 80.7%
viability, T/C [1]: 85.6%
viability, T/C [2]: 72.4%
viability, T/C (second compound 0.316 µM, first compound 0.000316 µM): 77.8%
viability, T/C (second compound 0.316 µM, first compound 0.001 µM): 87.5%
viability, T/C (second compound 0.316 µM, first compound 0.00316 µM): 69.2%
viability, T/C (second compound 0.316 µM, first compound 0.01 µM): 61.1%
viability, T/C [3]: 65.3%
viability, T/C [4]: 52.9%
viability, T/C (second compound 1 µM, first compound 0.000316 µM): 59.5%
viability, T/C (second compound 1 µM, first compound 0.001 µM): 56.8%
viability, T/C (second compound 1 µM, first compound 0.00316 µM): 49.3%
viability, T/C (second compound 1 µM, first compound 0.01 µM): 48%
viability, T/C [5]: 42.7%
viability, T/C [6]: 35.9%
viability, T/C (second compound 3.16 µM, first compound 0.000316 µM): 57.9%
viability, T/C (second compound 3.16 µM, first compound 0.001 µM): 61%
viability, T/C (second compound 3.16 µM, first compound 0.00316 µM): 56.1%
viability, T/C (second compound 3.16 µM, first compound 0.01 µM): 46.5%
viability, T/C [7]: 41.7%
viability, T/C [8]: 36.2%
viability, T/C (second compound 10 µM, first compound 0.000316 µM): 83.5%
viability, T/C (second compound 10 µM, first compound 0.001 µM): 69.4%
viability, T/C (second compound 10 µM, first compound 0.00316 µM): 65%
viability, T/C (second compound 10 µM, first compound 0.01 µM): 62.6%
viability, T/C [9]: 63.2%
viability, T/C [10]: 47.8%

Cn1cnc2c(F)c(Nc3ccc(Br)cc3Cl)c(C(=O)NOCCO)cc21 + CCN1CCN(Cc2ccc(Nc3ncc(F)c(-c4cc(F)c5nc(C)n(C(C)C)c5c4)n3)nc2)CC1
IC50 (second compound 0.01 µM): 0.118 µM
IC50 (second compound 0.0316 µM): 0.049 µM
IC50 (second compound 0.1 µM): < 0.00949 µM
IC50 (second compound 0.316 µM): 0.0153 µM
IC50 (second compound 1 µM): 0.17 µM
viability, T/C (second compound 0.01 µM, first compound 0.00949 µM): 62.4%
viability, T/C (second compound 0.01 µM, first compound 0.03 µM): 58.7%
viability, T/C (second compound 0.01 µM, first compound 0.0949 µM): 50.4%
viability, T/C (second compound 0.01 µM, first compound 0.3 µM): 41.3%
viability, T/C (second compound 0.01 µM, first compound 0.949 µM): 34%
viability, T/C (second compound 0.01 µM, first compound 3 µM): 14.1%
viability, T/C (second compound 0.0316 µM, first compound 0.00949 µM): 54.3%
viability, T/C (second compound 0.0316 µM, first compound 0.03 µM): 57.5%
viability, T/C (second compound 0.0316 µM, first compound 0.0949 µM): 44.5%
viability, T/C (second compound 0.0316 µM, first compound 0.3 µM): 35.5%
viability, T/C (second compound 0.0316 µM, first compound 0.949 µM): 29.1%
viability, T/C (second compound 0.0316 µM, first compound 3 µM): 13.4%
viability, T/C (second compound 0.1 µM, first compound 0.00949 µM): 47.2%
viability, T/C (second compound 0.1 µM, first compound 0.03 µM): 47.4%
viability, T/C (second compound 0.1 µM, first compound 0.0949 µM): 36.4%
viability, T/C (second compound 0.1 µM, first compound 0.3 µM): 32.1%
viability, T/C (second compound 0.1 µM, first compound 0.949 µM): 24.4%
viability, T/C (second compound 0.1 µM, first compound 3 µM): 12.6%
viability, T/C (second compound 0.316 µM, first compound 0.00949 µM): 54.7%
viability, T/C (second compound 0.316 µM, first compound 0.03 µM): 43.9%
viability, T/C (second compound 0.316 µM, first compound 0.0949 µM): 36.1%
viability, T/C (second compound 0.316 µM, first compound 0.3 µM): 34.8%
viability, T/C (second compound 0.316 µM, first compound 0.949 µM): 25.3%
viability, T/C (second compound 0.316 µM, first compound 3 µM): 15.1%
viability, T/C (second compound 1 µM, first compound 0.00949 µM): 64.6%
viability, T/C (second compound 1 µM, first compound 0.03 µM): 58.2%
viability, T/C (second compound 1 µM, first compound 0.0949 µM): 51.5%
viability, T/C (second compound 1 µM, first compound 0.3 µM): 47.9%
viability, T/C (second compound 1 µM, first compound 0.949 µM): 40.7%
viability, T/C (second compound 1 µM, first compound 3 µM): 28.2%
